Several values for one entry are separate records, joined by “and”; a condition that tells them apart may be missing. Equal values may be shown once.
Tests used:
[1] = molecular target: Grp94 (recombinant cGrp94) (Canis lupus familiaris (Dog) (Canis familiaris), UniProt P41148); experiment: Fluorescence polarization (FP) assay, cGrp94 with FITC-GDA; type: binding; conditions: apparent Kd, cGrp94 and FITC-GDA, triplicates, ± SEM, read-out: Kd Grp94
Protocol: (§1) Fluorescence Polarization. Assay buffer (25 μL, 20 mM HEPES pH 7.3, 50 mM KCl, 5 mM MgCl2, 1 mM DTT, 20 mM Na2MoO4, 0.01% NP-40, and 0.5 mg/mL BGG) was added to 96-well plate (black well, black bottom) followed by the desired compound at the indicated final concentrations in DMSO (1% DMSO final concentration). […] Plates were incubated with rocking for 5 h at 4° C. […] Percent FITC-GDA bound was determined by using the DMSO millipolarization unit (mP) as the 100% bound value and the 0% for FITC-GDA. Kd values were calculated from separate experiments performed in triplicate using GraphPad Prism.

Hsp90α = Hsp90α (Homo sapiens (Human), UniProt P07900); experiment: Fluorescence polarization (FP) assay, Hsp90α; type: binding
Protocol: as §1

Grp94 (recombinant cGrp94), sequence (P41148 22-804): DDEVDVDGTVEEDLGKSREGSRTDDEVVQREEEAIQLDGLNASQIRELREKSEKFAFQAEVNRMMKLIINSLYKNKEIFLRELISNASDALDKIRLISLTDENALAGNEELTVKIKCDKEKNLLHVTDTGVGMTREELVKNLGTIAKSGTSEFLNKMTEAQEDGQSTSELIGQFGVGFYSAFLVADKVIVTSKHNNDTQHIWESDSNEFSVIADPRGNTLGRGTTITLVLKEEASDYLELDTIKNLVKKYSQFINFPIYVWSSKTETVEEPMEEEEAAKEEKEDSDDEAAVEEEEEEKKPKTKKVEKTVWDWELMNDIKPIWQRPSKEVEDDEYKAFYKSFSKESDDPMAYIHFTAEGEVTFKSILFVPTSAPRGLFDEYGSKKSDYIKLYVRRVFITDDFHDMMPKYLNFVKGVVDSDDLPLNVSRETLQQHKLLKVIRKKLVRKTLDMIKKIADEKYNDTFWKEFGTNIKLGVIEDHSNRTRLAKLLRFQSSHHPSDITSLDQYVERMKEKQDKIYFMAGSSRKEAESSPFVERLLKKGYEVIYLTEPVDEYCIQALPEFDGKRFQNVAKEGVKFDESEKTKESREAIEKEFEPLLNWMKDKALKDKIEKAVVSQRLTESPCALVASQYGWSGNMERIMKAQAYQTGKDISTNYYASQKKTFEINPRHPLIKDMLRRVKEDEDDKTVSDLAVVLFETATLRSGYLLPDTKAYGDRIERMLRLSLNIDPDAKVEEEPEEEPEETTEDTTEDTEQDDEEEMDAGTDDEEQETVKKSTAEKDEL

Kd [1] | Kd (Hsp90α) [µM] | Compound
~1.3 µM and 1.13 µM | > 100 | NC(=O)c1ccc(-n2cccc2Cc2ccccc2)cc1N[C@H]1CC[C@H](O)CC1 [Compound 8a, 4-(2-benzyl-1H-pyrrol-1-yl)-2-(((1r,4r)-4-hydroxycyclohexyl)amino)benzamide]
0.83 ± 0.12 µM | > 100 | NC(=O)c1ccc(-n2cccc2Cc2ccccc2Cl)cc1N[C@H]1CC[C@H](O)CC1 [Compound 8b, 4-(2-(2-chlorobenzyl)-1H-pyrrol-1-yl)-2-(((1r,4r)-4-hydroxycyclohexyl)amino)benzamide]
2.45 ± 0.45 µM | > 100 | NC(=O)c1ccc(-n2cccc2Cc2cccc(Cl)c2)cc1N[C@H]1CC[C@H](O)CC1 [Compound 8c]
> 25 µM | > 100 | NC(=O)c1ccc(-n2cccc2Cc2ccc(Cl)cc2)cc1N[C@H]1CC[C@H](O)CC1 [Compound 8d, 4-(2-(4-chlorobenzyl)-1H-pyrrol-1-yl)-2-(((1r,4r)-4-hydroxycyclohexyl)amino)benzamide]
4.53 ± 0.12 µM | > 100 | NC(=O)c1ccc(-n2cccc2Cc2cccc(F)c2)cc1N[C@H]1CC[C@H](O)CC1 [Compound 8f, 4-(2-(3-fluorobenzyl)-1H-pyrrol-1-yl)-2-(((1r,4r)-4-hydroxycyclohexyl)amino)benzamide]
8.35 ± 0.14 µM | > 100 | NC(=O)c1ccc(-n2cccc2Cc2ccc(F)cc2)cc1N[C@H]1CC[C@H](O)CC1 [Compound 8g, 4-(2-(4-fluorobenzyl)-1H-pyrrol-1-yl)-2-(((1r,4r)-4-hydroxycyclohexyl)amino)benzamide]
12.9 ± 0.11 µM | > 100 | NC(=O)c1ccc(-n2cccc2Cc2ccccc2Br)cc1N[C@H]1CC[C@H](O)CC1 [Compound 8h, 4-(2-(2-bromobenzyl)-1H-pyrrol-1-yl)-2-(((1r,4r)-4-hydroxycyclohexyl)amino)benzamide]
4.2 ± 0.23 µM | > 100 | Cc1ccccc1Cc1cccn1-c1ccc(C(N)=O)c(N[C@H]2CC[C@H](O)CC2)c1 [Compound 8i, 2-(((1r,4r)-4-hydroxycyclohexyl)amino)-4-(2-(2-methylbenzyl)-1H-pyrrol-1-yl)benzamide]
> 25 µM | > 100 | NC(=O)c1ccc(-n2cccc2Cc2cccc(O)c2)cc1N[C@H]1CC[C@H](O)CC1 [Compound 8k, 4-(2-(3-hydroxybenzyl)-1H-pyrrol-1-yl)-2-(((1r,4r)-4-hydroxycyclohexyl)amino)benzamide]
– | > 100 | NC(=O)c1ccc(-n2cccc2Cc2ccc(O)cc2)cc1N[C@H]1CC[C@H](O)CC1 [Compound 8l, 4-(2-(4-hydroxybenzyl)-1H-pyrrol-1-yl)-2-(((1r,4r)-4-hydroxycyclohexyl)amino)benzamide]
1.15 µM | > 100 | COc1ccccc1Cc1cccn1-c1ccc(C(N)=O)c(N[C@H]2CC[C@H](O)CC2)c1 [Compound 8m, 2-(((1r,4r)-4-hydroxycyclohexyl)amino)-4-(2-(2-methoxybenzyl)-1H-pyrrol-1-yl)benzamide]
> 25 µM | > 100 | NC(=O)c1ccc(-n2cccc2Cc2c(F)cccc2F)cc1N[C@H]1CC[C@H](O)CC1 [Compound 8n, 4-(2-(2,6-difluorobenzyl)-1H-pyrrol-1-yl)-2-(((1r,4r)-4hydroxycyclohexyl)amino)benzamide]
14 ± 0.27 µM | > 100 | NC(=O)c1ccc(-n2cccc2Cc2ccccn2)cc1N[C@H]1CC[C@H](O)CC1 [Compound 8o, 2-(((1r,4r)-4-hydroxycyclohexyl)amino)-4-(2-(pyridin-2-ylmethyl)-1H-pyrrol-1-yl)benzamide]
5.5 ± 0.15 µM | > 100 | NC(=O)c1ccc(-n2cccc2Cc2cccnc2)cc1N[C@H]1CC[C@H](O)CC1 [Compound 8p, 2-(((1r,4r)-4-hydroxycyclohexyl)amino)-4-(2-(pyridin-3-ylmethyl)-1H-pyrrol-1-yl) benzamide]
13.2 ± 0.12 µM | > 100 | NC(=O)c1ccc(-n2cccc2Cc2ccncc2)cc1N[C@H]1CC[C@H](O)CC1 [Compound 8q, 2-(((1r,4r)-4-hydroxycyclohexyl)amino)-4-(2-(pyridin-4-ylmethyl)-1H-pyrrol-1-yl)benzamide]

The next lines start with the compound.

Compound | Kd [1] | Kd (Hsp90α) [µM]
NC(=O)c1ccc(-n2cccc2-c2ccccc2)cc1N[C@H]1CC[C@H](O)CC1 [Compound 5a, 2-(((1r,4r)-4-hydroxycyclohexyl)amino)-4-(2-phenyl-1H-pyrrol-1-yl)benzamide] | ~9 µM and 9.05 µM | > 100
Cc1ccccc1-c1cccn1-c1ccc(C(N)=O)c(N[C@H]2CC[C@H](O)CC2)c1 [Compound 5b, 2-(((1r,4r)-4-hydroxycyclohexyl)amino)-4-(2-(o-tolyl)-1H-pyrrol-1-yl)benzamide] | 9.9 ± 0.54 µM | > 100
Cc1cccc(-c2cccn2-c2ccc(C(N)=O)c(N[C@H]3CC[C@H](O)CC3)c2)c1 [Compound 5c, 2-(((1r,4r)-4-hydroxycyclohexyl)amino)-4-(2-(m-tolyl)-1H-pyrrol-1-yl)benzamide] | 9.43 ± 0.26 µM | > 100
Cc1ccc(-c2cccn2-c2ccc(C(N)=O)c(N[C@H]3CC[C@H](O)CC3)c2)cc1 [Compound 5d, 2-(((1r,4r)-4-hydroxycyclohexyl)amino)-4-(2-(p-tolyl)-1H-pyrrol-1-yl)benzamide] | 8.35 ± 0.14 µM | > 100
NC(=O)c1ccc(-n2cccc2-c2ccccc2Cl)cc1N[C@H]1CC[C@H](O)CC1 [Compound 5e, 4-(2-(2-chlorophenyl)-1H-pyrrol-1-yl)-2-(((1r,4r)-4-hydroxycyclohexyl)amino)benzamide] | – | > 100
NC(=O)c1ccc(-n2cccc2-c2cccc(Cl)c2)cc1N[C@H]1CC[C@H](O)CC1 [Compound 5f, 4-(2-(3-chlorophenyl)-1H-pyrrol-1-yl)-2-(((1r,4r)-4-hydroxycyclohexyl)amino)benzamide] | – | > 100
NC(=O)c1ccc(-n2cccc2-c2ccc(Cl)cc2)cc1N[C@H]1CC[C@H](O)CC1 [Compound 5g, 4-(2-(4-chlorophenyl)-1H-pyrrol-1-yl)-2-(((1r,4r)-4-hydroxycyclohexyl)amino)benzamide] | 10.6 ± 0.54 µM | > 100
NC(=O)c1ccc(-n2cccc2-c2ccccn2)cc1N[C@H]1CC[C@H](O)CC1 [Compound 5h, 2-(((1r,4r)-4-hydroxycyclohexyl)amino)-4-(2-(pyridin-2-yl)-1H-pyrrol-1-yl)benzamide] | 14 ± 0.27 µM | > 100
NC(=O)c1ccc(-n2cccc2-c2cccnc2)cc1N[C@H]1CC[C@H](O)CC1 [Compound 5i, 2-(((1r,4r)-4-hydroxycyclohexyl)amino)-4-(2-(pyridin-3-yl)-1H-pyrrol-1-yl)benzamide] | 5.5 ± 0.15 µM | > 100
NC(=O)c1ccc(-n2cccc2-c2ccncc2)cc1N[C@H]1CC[C@H](O)CC1 [Compound 5j, 2-(((1r,4r)-4-hydroxycyclohexyl)amino)-4-(2-(pyridin-4-yl)-1H-pyrrol-1-yl)benzamide] | 13.2 ± 0.12 µM | > 100
NC(=O)c1ccc(-n2cccc2CCc2ccccc2)cc1N[C@H]1CC[C@H](O)CC1 [Compound 9, 2-(((1r,4r)-4-hydroxycyclohexyl)amino)-4-(2-phenethyl-1H-pyrrol-1-yl)benzamide] | > 25 µM | > 100

From patent publication US10975030B2, “Grp94 selective inhibitors and uses thereof” (University of Kansas, priority 2016, dated 2021)
